PubChem BioAssay AID588569 (Sanford-Burnham Center for Chemical Genomics, 2011)
Active and inactive are the calls of the source.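 The calls were made as follows: active = mean IC50 of 20 µM or lower in the 6 hour cytotoxicity test; inactive = the rest.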

Tested on: CHO-XBP1 cytotoxicity, ATPlite luminescence, 6 h
Assay: CHO-XBP1 cell viability loss – 6 h exposure, ATPlite luminescence, cytotoxicity control for UPR adaptive arm activator project, SAR follow-up (AID 588569)

## Cc1nc(Nc2nc(-c3ccccc3)cc(=O)[nH]2)nc2ccccc12
  IC50: 36.4 µM (inactive)

## Cc1cc(Br)cc(NC(=O)c2cc(-c3ccncc3)nc3ccccc23)c1
  IC50: > 80 µM (inactive)

## O=C(Nc1ccc(Cl)cc1)c1cc(-c2ccncc2)nc2ccccc12
  IC50: 75.4 µM (inactive)

## Cc1ccc(NC(=O)c2cc(-c3ccncc3)nc3ccccc23)cc1
  IC50: > 80 µM (inactive)

## O=C(Nc1ccc(Br)c(C(F)(F)F)c1)c1cc(-c2ccncc2)nc2ccccc12
  IC50: > 80 µM (inactive)

## O=C(Nc1ccc(F)cc1)c1cc(-c2ccncc2)nc2ccccc12
  IC50: > 80 µM (inactive)

## O=C(Nc1ccc(C(F)(F)F)cc1)c1cc(-c2ccncc2)nc2ccccc12
  IC50: 70.4 µM (inactive)
